In ChEMBL document CHEMBL1201862, “PubChem BioAssay data set” (2004):
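Test compounds were applied to cells in 96-well plates for 48 hours at 5 doses. GI50 is the concentration that inhibits growth by half.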 The source made the active and inactive calls. Rule as the data show it: active = GI50 up to about 1.1 µM and inactive = higher.

How the values were obtained:
Experiment in all cases: NCI tumour cell line growth inhibition, 48 h
HL-60 = system: HL-60
IGROV-1 = system: IGROV-1
Malme-3M = system: Malme-3M
OVCAR-8 = system: OVCAR-8
CCRF-CEM = system: CCRF-CEM
SK-MEL-5 = system: SK-MEL-5
DU-145 = system: DU-145
HCT-116 = system: HCT-116
SK-OV-3 = system: SK-OV-3
OVCAR-5 = system: OVCAR-5
MCF7 = system: MCF7
M14 = system: M14
SW-620 = system: SW-620
SF-295 = system: SF-295
U-251 = system: U-251
LOX IMVI = system: LOX IMVI
RPMI-8226 = system: RPMI-8226
A498 = system: A498
HOP-92 = system: HOP-92
NCI-H226 = system: NCI-H226

Measured: GI50

CN(C)CCCNc1ccnc2cccc([N+](=O)[O-])c12
inactive: HL-60 26.7 µM | IGROV-1 12.1 µM | Malme-3M 8.18 µM | OVCAR-8 22 µM | CCRF-CEM 28.9 µM | SK-MEL-5 10.4 µM | DU-145 29 µM | HCT-116 13.7 µM | SK-OV-3 2.52 µM | OVCAR-5 23 µM | MCF7 10.7 µM | M14 7.05 µM | SW-620 17.2 µM | SF-295 13.3 µM | U-251 15.7 µM | LOX IMVI 13.6 µM | RPMI-8226 27.3 µM | A498 15.5 µM | HOP-92 10.6 µM | NCI-H226 15.3 µM

COC(=O)[C@@H]1C[C@H]([Se]c2ccccc2)CN1C(=O)OCc1ccccc1
inactive: HL-60 22.6 µM | IGROV-1 50.6 µM | Malme-3M 26.2 µM | OVCAR-8 45.3 µM | CCRF-CEM 34.1 µM | SK-MEL-5 16.9 µM | DU-145 47.2 µM | HCT-116 34.1 µM | SK-OV-3 > 100 µM | OVCAR-5 > 100 µM | MCF7 20 µM | M14 29.8 µM | SW-620 52.6 µM | SF-295 35.3 µM | U-251 35.2 µM | LOX IMVI 12.6 µM | RPMI-8226 24.8 µM | A498 31.2 µM | HOP-92 33.7 µM | NCI-H226 32.7 µM

CN1C=COC1N=C1CCCCC1 (stereo not given)
inactive: HL-60 > 100 µM | IGROV-1 > 100 µM | Malme-3M > 100 µM | OVCAR-8 > 100 µM | CCRF-CEM > 100 µM | SK-MEL-5 > 100 µM | DU-145 > 100 µM | HCT-116 > 100 µM | SK-OV-3 > 100 µM | OVCAR-5 > 100 µM | MCF7 > 100 µM | M14 > 100 µM | SW-620 3.3 µM | SF-295 > 100 µM | U-251 > 100 µM | LOX IMVI > 100 µM | RPMI-8226 > 100 µM | A498 > 100 µM | HOP-92 75.7 µM | NCI-H226 > 100 µM

C=CCC(CC=O)(C(=O)OCC)C(=O)OCC
inactive: HL-60 86.1 µM | IGROV-1 > 100 µM | Malme-3M > 100 µM | OVCAR-8 > 100 µM | CCRF-CEM > 100 µM | SK-MEL-5 > 100 µM | DU-145 > 100 µM | HCT-116 > 100 µM | SK-OV-3 > 100 µM | OVCAR-5 > 100 µM | MCF7 > 100 µM | M14 > 100 µM | SW-620 > 100 µM | SF-295 > 100 µM | U-251 > 100 µM | LOX IMVI > 100 µM | RPMI-8226 > 100 µM | A498 > 100 µM | HOP-92 > 100 µM | NCI-H226 > 100 µM

CN(C)CCCCN1c2ccccc2Sc2cc(N=[N+]=[N-])ccc21
inactive: HL-60 2.11 µM | IGROV-1 1.73 µM | Malme-3M 1.82 µM | OVCAR-8 1.69 µM | CCRF-CEM 2.01 µM | SK-MEL-5 1.73 µM | DU-145 2.1 µM | HCT-116 1.78 µM | SK-OV-3 2.2 µM | OVCAR-5 1.89 µM | MCF7 1.85 µM | M14 1.69 µM | SW-620 1.87 µM | SF-295 1.96 µM | U-251 2.04 µM | LOX IMVI 1.56 µM | RPMI-8226 2.38 µM | A498 10 µM | HOP-92 2.74 µM | NCI-H226 3.28 µM
